Results on 63 compounds are retold here after patent US20240158369A1, “PYRIMIDINE COMPOUND AS WEE-1 INHIBITOR” (WIGEN BIOMEDICINE TECHNOLOGY (SHANGHAI) CO., LTD., priority 2021, published 2024).

SMILES strings stand for the structures.

Sequence of recombinant protein Wee-1 (P30291 whole entry): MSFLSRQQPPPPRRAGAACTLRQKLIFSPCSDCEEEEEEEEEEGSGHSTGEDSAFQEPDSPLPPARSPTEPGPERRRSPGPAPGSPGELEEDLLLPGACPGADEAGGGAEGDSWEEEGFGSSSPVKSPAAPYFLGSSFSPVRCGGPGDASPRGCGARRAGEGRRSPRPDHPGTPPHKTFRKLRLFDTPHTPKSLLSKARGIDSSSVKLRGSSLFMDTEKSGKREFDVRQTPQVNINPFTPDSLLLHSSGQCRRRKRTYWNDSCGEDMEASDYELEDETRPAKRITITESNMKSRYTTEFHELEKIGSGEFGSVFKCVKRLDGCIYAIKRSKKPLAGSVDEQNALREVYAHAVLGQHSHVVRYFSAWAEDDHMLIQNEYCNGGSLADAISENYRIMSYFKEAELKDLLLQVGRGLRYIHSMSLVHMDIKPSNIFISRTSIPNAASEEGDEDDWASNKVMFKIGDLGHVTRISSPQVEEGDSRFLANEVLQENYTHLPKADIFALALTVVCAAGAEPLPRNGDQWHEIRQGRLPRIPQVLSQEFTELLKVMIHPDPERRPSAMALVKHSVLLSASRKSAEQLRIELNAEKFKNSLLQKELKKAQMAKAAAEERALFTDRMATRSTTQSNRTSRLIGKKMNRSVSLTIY

The test concerns the target recombinant protein Wee-1 (Homo sapiens (Human), UniProt P30291). Kind of test: HTRF assay for inhibiting enzymatic activity of recombinant protein Wee-1. It counts as biochemical. Particulars: compounds up to 200 nM, read-out: (IC50) Inhibitory activity against recombinant protein Wee-1. The procedure: The inhibitory effect of the compounds on the enzyme activity of recombinant protein Wee-1 was determined by HTRF. The procedures are as follows:
After DMSO or serially diluted compounds (up to 200 nM, 1:5 diluted) and recombinant proteins were co-incubated in a kinase buffer at 37° C. for 30 min before Fluorescein-PolyGAT and ATP were added, and the reaction was initiated by addition of a substrate. After incubation at room temperature for 90 min, an antibody and a detection solution were added, and after further incubation at room temperature for 60 min, fluorescence values were detected (excitation wavelength: 340 nm, emission wavelengths: 495 and 520 nm). The 520 nm/495 nm fluorescence intensity ratio value was calculated, and compared with that of the DMSO group, and then the inhibition percentages and IC50 values of the compounds were calculated.
The term IC50 denotes the point on the concentration scale where inhibition reaches its midpoint. For `Cc1cc(Nc2ncc(C#N)c(Nc3ccc4c(n3)N=S(C)(=O)C4)n2)cc2c1CCN(C)C2` (stereo not drawn) [Compound 88], the IC50 is over 50 nM.

Consider `Cc1cc(Nc2ncc(C#N)c(Nc3cc(F)cc(N=S(C)(C)=O)n3)n2)cc2c1CCN(C)C2` [Compound 74], for which the IC50 is at most 10 nM.

`CN1CCOc2ccc(Nc3ncc(C#N)c(Nc4cccc(N=S(C)(C)=O)n4)n3)cc2C1` [Compound 57]: the IC50 was at most 10 nM.

As to `CC(C)c1cc(Nc2ncc(C#N)c(Nc3cccc(N=S(C)(C)=O)n3)n2)cc2c1C1(CC1)CN(C)C2` [Compound 33], the half-inhibitory concentration (IC50) is at most 10 nM.

For `CCc1cc(Nc2ncc(C#N)c(Nc3cccc(N=S(C)(C)=O)n3)n2)cc2c1CCN(CC)C2` [Compound 141], the IC50 is at most 10 nM.

As to `CC(C)Oc1cc(Nc2ncc(C#N)c(Nc3ccc(F)c(N=S(C)(C)=O)n3)n2)cc2c1CCN(C)C2` [Compound 93], the half-inhibitory concentration (IC50) is at most 10 nM.

In the case of `CN1CCc2c(CCN)cc(Nc3ncc(C#N)c(Nc4cccc(N=S(C)(C)=O)n4)n3)cc2C1` [Compound 135], the IC50 was at most 10 nM.

Turning to `Cc1cc(Nc2ncc(C#N)c(Nc3cccc(N=S(C)(C)=O)n3)n2)cc2c1C(C)(C)CN(C)C2` [Compound 36], the IC50 is at most 10 nM.

For the compound `CCc1cc(Nc2ncc(C#N)c(Nc3ccnc(N=S(C)(C)=O)n3)n2)cc2c1CCN(C)C2` [Compound 144], the IC50 was at most 10 nM.

As for `CN1CCc2ccc(Nc3ncc(C#N)c(Nc4cc5c(c(N=S(C)(C)=O)n4)CCC5)n3)cc2C1` [Compound 83], the IC50 is at most 10 nM.

With `CCc1cc(Nc2ncc(C#N)c(Nc3ccc(F)c(N=S(C)(C)=O)n3)n2)cc2c1CCN(C)C2` [Compound 89], the IC50 was at most 10 nM.

For the compound `CN1CCc2c(cc(Nc3ncc(C#N)c(Nc4cccc(N=S(C)(C)=O)n4)n3)cc2C(F)F)C1` [Compound 21], the IC50 is at most 10 nM.

Turning to `CN1CCc2ccc(Nc3ncc(C#N)c(Nc4cc5ccccc5c(N=S(C)(C)=O)n4)n3)cc2C1` [Compound 71], the IC50 was at most 10 nM.

Turning to `CCc1cc(Nc2ncc(C#N)c(Nc3cccc(N=S(C)(C)=O)n3)n2)cc2c1CCNC2` [Compound 151], the concentration for half-maximal inhibition (IC50) was at most 10 nM.

As to `CCOc1cc(Nc2ncc(C#N)c(Nc3ccc(F)c(N=S(C)(C)=O)n3)n2)cc2c1CCN(C)C2` [Compound 92], the IC50 is at most 10 nM.

In the case of `CN1CCc2c(CCO)cc(Nc3ncc(C#N)c(Nc4cccc(N=S(C)(C)=O)n4)n3)cc2C1` [Compound 132], the IC50 was at most 10 nM.

In the case of `CCc1cc(Nc2ncc(C#N)c(Nc3cccc(N=S4(=O)CCC4)n3)n2)cc2c1CCN(C)C2` [Compound 159], the IC50 is at most 10 nM.

For `CN1CCc2ccc(Nc3ncc(C#N)c(Nc4cccc(N=S(C)(C)=O)n4)n3)cc2C12CC2` [Compound 103], the IC50 was at most 10 nM.

In the case of `CN1Cc2cc(Nc3ncc(C#N)c(Nc4cccc(N=S(C)(C)=O)n4)n3)cc(C3CC3)c2C2(CC2)C1` [Compound 32], the IC50 was at most 10 nM.

As to `CN1CCc2c(cc(Nc3ncc(C#N)c(Nc4cccc(N=S(C)(C)=O)n4)n3)cc2C(C)(C)C)C1` [Compound 86], the 50% inhibitory concentration (IC50) was at most 10 nM.

Regarding `COc1cc(Nc2ncc(C#N)c(Nc3ccc(F)c(N=S(C)(C)=O)n3)n2)cc2c1CCN(C)C2` [Compound 90], the IC50 was at most 10 nM.

As for `CN1CCc2c(cc(Nc3ncc(C#N)c(Nc4ccc(F)c(N=S(C)(C)=O)n4)n3)cc2C2(C)CC2)C1` [Compound 102], the IC50 is at most 10 nM.

For `CN1CCc2c(cc(Nc3ncc(C#N)c(Nc4cccc(N=S(C)(C)=O)n4)n3)cc2-c2ccoc2)C1` [Compound 114], the IC50 was at most 10 nM.

With `CN1CCc2ccc(Nc3ncc(C#N)c(-n4ccc5c(N=S(C)(C)=O)cccc54)n3)cc2C1` [Compound 76], the IC50 is at most 10 nM.

`CN1CCc2ccc(Nc3ncc(C#N)c(Nc4nc(N=S(C)(C)=O)cc5[nH]ccc45)n3)cc2C1` [Compound 81]: the IC50 is at most 10 nM.

With `CN1CCc2ccc(Nc3ncc(C#N)c(Nc4cncc(N=S(C)(C)=O)n4)n3)cc2C1` [Compound 68], the IC50 was at most 10 nM.

For `CC(C)c1cc(Nc2ncc(C#N)c(Nc3cccc(N=S(C)(C)=O)n3)n2)cc2c1C(C)(C)CN(C)C2` [Compound 38], the IC50 is at most 10 nM.

`CN1CCc2ccc(Nc3ncc(C#N)c(Nc4nccc(N=S(C)(C)=O)n4)n3)cc2C1` [Compound 70]: the half-inhibitory concentration (IC50) was at most 10 nM.

`CCN1CCc2ccc(Nc3ncc(C#N)c(Nc4cccc(N=S(C)(C)=O)n4)n3)cc2C1` [Compound 45]: the 50% inhibitory concentration (IC50) is at most 10 nM.

Regarding `CN1CCc2c(Br)cc(Nc3ncc(C#N)c(Nc4cccc(N=S(C)(C)=O)n4)n3)cc2C1` [Compound 27], the IC50 was at most 10 nM.

For `CS(C)(=O)=Nc1cccc(Nc2nc(Nc3ccc4c(c3)CN(C3CC3)CC4)ncc2C#N)n1` [Compound 47], the IC50 is at most 10 nM.

`CN1CCc2ccc(Nc3ncc(C#N)c(Nc4ccnc(N=S(C)(C)=O)c4)n3)cc2C1` [Compound 65]: the IC50 was at most 10 nM.

Regarding `CN1Cc2cc(Nc3ncc(C#N)c(Nc4cccc(N=S(C)(C)=O)n4)n3)ccc2C(C)(C)C1` [Compound 35], the IC50 was at most 10 nM.

Turning to `CN1Cc2cc(Nc3ncc(C#N)c(Nc4cccc(N=S(C)(C)=O)n4)n3)cc(C3CC3)c2C(C)(C)C1` [Compound 39], the IC50 is at most 10 nM.

Turning to `COc1ccc(Nc2nc(Nc3ccc4c(c3)CN(C)CC4)ncc2C#N)nc1N=S(C)(C)=O` [Compound 84], the IC50 was at most 10 nM.

Take `CCc1cc(Nc2ncc(C#N)c(Nc3nccc(N=S(C)(C)=O)n3)n2)cc2c1CCN(C)C2` [Compound 143]: the IC50 is at most 10 nM.

On to `CN1CCc2c(cc(Nc3ncc(C#N)c(Nc4ccc(F)c(N=S(C)(C)=O)n4)n3)cc2N2CCC2)C1` [Compound 96], for which the IC50 is at most 10 nM.

Turning to `Cc1cc(Nc2ncc(C#N)c(Nc3nc(N=S(C)(C)=O)ccc3F)n2)cc2c1CCN(C)C2` [Compound 75], the IC50 was at most 10 nM.

As to `CN1CCc2c(CC3CCC3)cc(Nc3ncc(C#N)c(Nc4cccc(N=S(C)(C)=O)n4)n3)cc2C1` [Compound 125], the IC50 was at most 10 nM.

Take `CN1CCc2c(cc(Nc3ncc(C#N)c(Nc4ccc(F)c(N=S(C)(C)=O)n4)n3)cc2C2CCCC2)C1` [Compound 99]: the IC50 is at most 10 nM.

Turning to `CN1CCc2c(cc(Nc3ncc(C#N)c(Nc4cccc(N=S(C)(C)=O)n4)n3)cc2N2CCC2)C1` [Compound 95], the IC50 was at most 10 nM.

Consider `CN1CCc2c(cc(Nc3ncc(C#N)c(Nc4cncc(N=S(C)(C)=O)n4)n3)cc2C2CC2)C1` [Compound 138], for which the concentration for half-maximal inhibition (IC50) was at most 10 nM.

Turning to `CN1CCc2c(cc(Nc3ncc(C#N)c(Nc4ccc(F)c(N=S(C)(C)=O)n4)n3)cc2C2CCC2)C1` [Compound 98], the concentration for half-maximal inhibition (IC50) was at most 10 nM.

As to `CC(C)Oc1cc(Nc2ncc(C#N)c(Nc3cccc(N=S(C)(C)=O)n3)n2)cc2c1CCN(C)C2` [Compound 24], the IC50 was at most 10 nM.

Take `CN1CCc2ccc(Nc3ncc(C#N)c(Nc4nc(N=S(C)(C)=O)cc5c4CCN5)n3)cc2C1` [Compound 82]: the IC50 was at most 10 nM.

With `CS(C)(=O)=Nc1cccc(Nc2nc(Nc3ccc4c(c3)CN(CCO)CC4)ncc2C#N)n1` [Compound 48], the IC50 is at most 10 nM.

For the compound `CN1CCc2ccc(Nc3ncc(C#N)c(Nc4ccnc(N=S(C)(C)=O)n4)n3)cc2C1` [Compound 69], the 50% inhibitory concentration (IC50) was at most 10 nM.

On to `CN1CCc2c(cc(Nc3ncc(C#N)c(Nc4cccc(N=S(C)(C)=O)n4)n3)cc2N(C)C)C1` [Compound 44], for which the IC50 was at most 10 nM.

As for `CN1CCc2c(CN)cc(Nc3ncc(C#N)c(Nc4cccc(N=S(C)(C)=O)n4)n3)cc2C1` [Compound 134], the IC50 was at most 10 nM.

`CCOc1cc(Nc2ncc(C#N)c(Nc3cccc(N=S(C)(C)=O)n3)n2)cc2c1CCN(C)C2` [Compound 23]: the IC50 is at most 10 nM.

Turning to `Cc1cc(Nc2ncc(C#N)c(Nc3cccc(N=S(C)(C)=O)n3)n2)cc2c1C1(CC1)CN(C)C2` [Compound 30], the IC50 was at most 10 nM.

`CN1CCSc2ccc(Nc3ncc(C#N)c(Nc4cccc(N=S(C)(C)=O)n4)n3)cc2C1` [Compound 58]: the IC50 is at most 10 nM.

Turning to `CCc1cc(Nc2ncc(C#N)c(Nc3cccc(N=S(C)(C)=O)n3)n2)cc2c1C1(CC1)CN(C)C2` [Compound 31], the IC50 is at most 10 nM.

On to `CN1CCc2c(cc(Nc3ncc(C#N)c(Nc4ccnc(N=S(C)(C)=O)n4)n3)cc2C2CC2)C1` [Compound 140], for which the IC50 is at most 10 nM.

On to `CCc1cc(Nc2ncc(C#N)c(Nc3cccc(N=S(C)(=O)CC)n3)n2)cc2c1CCN(C)C2` (stereo not drawn) [Compound 157], for which the IC50 was at most 10 nM.

On to `CN1CCc2c(cc(Nc3ncc(C#N)c(Nc4nccc(N=S(C)(C)=O)n4)n3)cc2C2CC2)C1` [Compound 139], for which the IC50 is at most 10 nM.

For `CCc1cc(Nc2ncc(C#N)c(Nc3cncc(N=S(C)(C)=O)n3)n2)cc2c1CCN(C)C2` [Compound 142], the IC50 was at most 10 nM.

In the case of `CN1CCc2c(cc(Nc3ncc(C#N)c(Nc4ccc(F)c(N=S(C)(C)=O)n4)n3)cc2C2=CCCC2)C1` [Compound 100], the IC50 was at most 10 nM.

As for `CN(C)C1CC=Cc2ccc(Nc3ncc(C#N)c(Nc4cccc(N=S(C)(C)=O)n4)n3)cc2C1` (stereo not drawn) [Compound 56], the IC50 was at most 10 nM.

As for `CN(C)C1CCc2ccc(Nc3ncc(C#N)c(Nc4cccc(N=S(C)(C)=O)n4)n3)cc2C1` (stereo not drawn) [Compound 51], the concentration for half-maximal inhibition (IC50) is at most 10 nM.

Consider `CN1CCc2c(cc(Nc3ncc(C#N)c(Nc4ccc(F)c(N=S(C)(C)=O)n4)n3)cc2C2CC2)C1` [Compound 94], for which the IC50 was at most 10 nM.

For `CN(C)CCN1CCc2ccc(Nc3ncc(C#N)c(Nc4cccc(N=S(C)(C)=O)n4)n3)cc2C1` [Compound 50], the IC50 is at most 10 nM.

On to `CN(C)C1CCCc2ccc(Nc3ncc(C#N)c(Nc4cccc(N=S(C)(C)=O)n4)n3)cc2C1` (stereo not drawn) [Compound 53], for which the IC50 is at most 10 nM.
